# Assay results taken from publication PMC5007552, “The hVps34‐SGK3 pathway alleviates sustained PI3K/Akt inhibition by stimulating mTORC1 and tumour growth” (The EMBO Journal, 2016).
# Values joined by “and” are separate entries in the source; they are usually repeats but may differ in a detail not shown here. Identical values can stand only once.
# System: ZR-75-1 cells
# Test: NanoString human kinome mRNA quantification
# Type: cell-based
# From the text: Human mRNAs were hybridised to NanoString human kinome and control code sets, then subjected to quantification using NanoString software. […] To permit data compaction, and simple kinome‐wide comparisons, the fold changes are log2 transformed. […] Cell pellets were resuspended at a concentration of ~6,500 cells/μl in RLT buffer (Qiagen). […] For total copy numbers, triplicate normalised count values were averaged, and to calculate fold induction, means were divided by triplicate mean values from matched DMSO controls. P‐values were calculated using unpaired t‐test (GraphPad Prism software) by employing treated and control count data for each kinase mRNA.
smiles,measurement,setting,value
NC1(c2ccc(-c3nc4ccn5c(=O)[nH]nc5c4cc3-c3ccccc3)cc2)CCC1 [MK-2206],rank of SGK3 mRNA expression in the 536-member kinase panel,"1 μM, day 5, ZR-75-1, DMSO control 230th",94
same,AAK1 Average normalised counts,"AAK1 mRNA, average of 3 replicates",782.49
same,AAK1 Normalised counts,"AAK1 mRNA, single replicates",765.01 and 806.95 and 775.51
same,AATK Average normalised counts,"AATK mRNA, average of 3 replicates",168.267
same,AATK Normalised counts,"AATK mRNA, single replicates",168.73 and 152.79 and 183.28
same,ABL1 Average normalised counts,"ABL1 mRNA, average of 3 replicates",597.787
same,ABL1 Normalised counts,"ABL1 mRNA, single replicates",594.12 and 597.59 and 601.65
same,ABL2 Average normalised counts,"ABL2 mRNA, average of 3 replicates",904.847
same,ABL2 Normalised counts,"ABL2 mRNA, single replicates",861.36 and 926.84 and 926.34
same,ACVR1B Normalised counts,"ACVR1B mRNA, single replicates",285.69
same,ACVR1C Average normalised counts,"ACVR1C mRNA, average of 3 replicates",2.92
same,ACVR1C Normalised counts,"ACVR1C mRNA, single replicates",2.39 and 2.5 and 3.87
same,ACVR1 Normalised counts,"ACVR1 mRNA, single replicates",276.15 and 273.79
same,ACVR2A Average normalised counts,"ACVR2A mRNA, average of 3 replicates",137.863
same,ACVR2A Normalised counts,"ACVR2A mRNA, single replicates",146 and 131.94 and 135.65
same,ACVR2B Average normalised counts,"ACVR2B mRNA, average of 3 replicates",119.837
same,ACVR2B Normalised counts,"ACVR2B mRNA, single replicates",122.37 and 110.22 and 126.92
same,ACVRL1 Average normalised counts,"ACVRL1 mRNA, average of 3 replicates",5.713
same,ACVRL1 Normalised counts,"ACVRL1 mRNA, single replicates",4.2 and 5.1 and 7.84
same,ADCK1 Average normalised counts,"ADCK1 mRNA, average of 3 replicates",103.98
same,ADCK1 Normalised counts,"ADCK1 mRNA, single replicates",96.01 and 112.83 and 103.1
same,ADCK2 Average normalised counts,"ADCK2 mRNA, average of 3 replicates",571.397
same,ADCK2 Normalised counts,"ADCK2 mRNA, single replicates",535.04 and 567.18 and 611.97
same,ADCK3 Average normalised counts,"ADCK3 mRNA, average of 3 replicates",173.12
same,ADCK3 Normalised counts,"ADCK3 mRNA, single replicates",181.45 and 164.95 and 172.96
same,ADCK4 Average normalised counts,"ADCK4 mRNA, average of 3 replicates",488.637
same,ADCK4 Normalised counts,"ADCK4 mRNA, single replicates",486.86 and 483.78 and 495.27
same,ADCK5 Average normalised counts,"ADCK5 mRNA, average of 3 replicates",272.407
same,ADCK5 Normalised counts,"ADCK5 mRNA, single replicates",276.89 and 275.28
same,ADRBK1 Average normalised counts,"ADRBK1 mRNA, average of 3 replicates",4377.38
same,ADRBK1 Normalised counts,"ADRBK1 mRNA, single replicates",4312.7 and 4473.91 and 4345.53
same,ADRBK2 Average normalised counts,"ADRBK2 mRNA, average of 3 replicates",361.227
same,ADRBK2 Normalised counts,"ADRBK2 mRNA, single replicates",361.43 and 359.55 and 362.7
same,AKT1 Average normalised counts,"AKT1 mRNA, average of 3 replicates",6880.64
same,AKT1 Normalised counts,"AKT1 mRNA, single replicates",6785.99 and 6852.52 and 7003.4
same,AKT2 Average normalised counts,"AKT2 mRNA, average of 3 replicates",2329.47
same,AKT2 Normalised counts,"AKT2 mRNA, single replicates",2337.52 and 2309.87 and 2341.02
same,AKT3 Average normalised counts,"AKT3 mRNA, average of 3 replicates",1.89
same,AKT3 Normalised counts,"AKT3 mRNA, single replicates",2.39 and 1 and 2.28
same,ALK Average normalised counts,"ALK mRNA, average of 3 replicates",1
same,ALK Normalised counts,"ALK mRNA, single replicates",1
same,ALPK2 Average normalised counts,"ALPK2 mRNA, average of 3 replicates",16.6133
same,ALPK2 Normalised counts,"ALPK2 mRNA, single replicates",12.38 and 22.48 and 14.98
same,ALPK3 Average normalised counts,"ALPK3 mRNA, average of 3 replicates",74.1967
same,ALPK3 Normalised counts,"ALPK3 mRNA, single replicates",85.1 and 68.52 and 68.97
same,AMHR2 Average normalised counts,"AMHR2 mRNA, average of 3 replicates",1
same,AMHR2 Normalised counts,"AMHR2 mRNA, single replicates",1
same,ANKK1 Average normalised counts,"ANKK1 mRNA, average of 3 replicates",2.167
same,ANKK1 Normalised counts,"ANKK1 mRNA, single replicates",1 and 1.63 and 3.87
same,ARAF Average normalised counts,"ARAF mRNA, average of 3 replicates",918.807
same,ARAF Normalised counts,"ARAF mRNA, single replicates",894.08 and 950.29 and 912.05
same,ATM Average normalised counts,"ATM mRNA, average of 3 replicates",3.063
same,ATM Normalised counts,"ATM mRNA, single replicates",5.11 and 1 and 3.08
same,ATR Average normalised counts,"ATR mRNA, average of 3 replicates",668.797
same,ATR Normalised counts,"ATR mRNA, single replicates",672.29 and 661 and 673.1
same,AURKA Average normalised counts,"AURKA mRNA, average of 3 replicates",948.07
same,AURKA Normalised counts,"AURKA mRNA, single replicates",903.17 and 1006.76 and 934.28
same,AURKB Average normalised counts,"AURKB mRNA, average of 3 replicates",1225.21
same,AURKB Normalised counts,"AURKB mRNA, single replicates",1232.22 and 1235.24 and 1208.17
same,AURKC Average normalised counts,"AURKC mRNA, average of 3 replicates",8.06
same,AURKC Normalised counts,"AURKC mRNA, single replicates",7.84 and 7.71 and 8.63
same,AXL Average normalised counts,"AXL mRNA, average of 3 replicates",5.22
same,AXL Normalised counts,"AXL mRNA, single replicates",3.29 and 7.71 and 4.66
same,BCKDK Average normalised counts,"BCKDK mRNA, average of 3 replicates",3561.04
same,BCKDK Normalised counts,"BCKDK mRNA, single replicates",3631.88 and 3513.08 and 3538.17
same,BCR Average normalised counts,"BCR mRNA, average of 3 replicates",1460.29
same,BCR Normalised counts,"BCR mRNA, single replicates",1503.09 and 1393.35 and 1484.43
same,BLK Average normalised counts,"BLK mRNA, average of 3 replicates",26.4533
same,BLK Normalised counts,"BLK mRNA, single replicates",26.93 and 30.3 and 22.13
same,BMP2K Average normalised counts,"BMP2K mRNA, average of 3 replicates",406.717
same,BMP2K Normalised counts,"BMP2K mRNA, single replicates",374.15 and 422.97 and 423.03
same,BMPR1A Average normalised counts,"BMPR1A mRNA, average of 3 replicates",4758.43
same,BMPR1A Normalised counts,"BMPR1A mRNA, single replicates",4812.63 and 4697.18 and 4765.49
same,BMPR1B Average normalised counts,"BMPR1B mRNA, average of 3 replicates",1516.82
same,BMPR1B Normalised counts,"BMPR1B mRNA, single replicates",1517.63 and 1515.84 and 1516.98
same,BMPR2 Average normalised counts,"BMPR2 mRNA, average of 3 replicates",568.93
same,BMPR2 Normalised counts,"BMPR2 mRNA, single replicates",569.58 and 587.16 and 550.05
same,BMX Average normalised counts,"BMX mRNA, average of 3 replicates",1
same,BMX Normalised counts,"BMX mRNA, single replicates",1
same,BRAF Average normalised counts,"BRAF mRNA, average of 3 replicates",627.873
same,BRAF Normalised counts,"BRAF mRNA, single replicates",623.21 and 634.94 and 625.47
same,BRD2 Average normalised counts,"BRD2 mRNA, average of 3 replicates",2991.5
same,BRD2 Normalised counts,"BRD2 mRNA, single replicates",2957.43 and 3009.21 and 3007.86
same,BRD3 Average normalised counts,"BRD3 mRNA, average of 3 replicates",697.943
same,BRD3 Normalised counts,"BRD3 mRNA, single replicates",683.2 and 692.28 and 718.35
same,BRD4 Average normalised counts,"BRD4 mRNA, average of 3 replicates",2588.8
